Test system: LOLMG
Experiment: Pre-emergence herbicidal trial, tank-mix incorporated into the soil, damage rated 0-100% against untreated control plots
Type: in vivo, lolium multiflorum
Protocol: The mixtures according to the invention are applied pre-emergence as tank-mix which is incorporated into the soil. The herbicidal compounds of component A) and B) are applied in the formulation in which they are present as commercially available product. […] For comparison the synergistic effect is estimated as follows: The value E at which only an additive effect of the individual active ingredients is to be expected is calculated by the method of S. R. […] This is done using the formula […] where • X=Percentage of the herbicidal action of component A) at an application rate of a; • Y=Percentage of the herbicidal action of component B) at an application rate of b; • E=expected herbicidal action of component A)+B) at rates of application a+b (in %). If the value observed exceeds the value E calculated in accordance with Colby's formula, then synergism is present.

For `CCC(CC)Nc1c([N+](=O)[O-])cc(C)c(C)c1[N+](=O)[O-]` [Pendimethalin], the “% control of LOLMG” value (Pendimethalin 600 g/ha solo) was 56%.
For `Cc1ccccc1CO[C@@H]1C[C@@]2(C(C)C)CC[C@]1(C)O2` [Cinmethylin, exo(+)-1-methyl-4-(1-methylethyl)-2-[(2-methylphenyl)methoxy]-7-oxabicyclo[2.2.1]heptane], the “% control of LOLMG” value (Cinmethylin 200 g/ha solo) was 58% and the “% control of LOLMG” value (Cinmethylin 400 g/ha solo) was 67%.
`CCCN(CCC)c1c([N+](=O)[O-])cc(C(F)(F)F)cc1[N+](=O)[O-]` [Trifluralin] was tested, and the “% control of LOLMG” value (Trifluralin 500 g/ha solo) was 59%.
